The nature of series [1]: Stability of GABA and glutamate test samples under storage, treatment and analysis conditions. The class given is physicochemical. The procedure: The test samples were stored in a freezer at −70° C., and thawed at room temperature before use. 20 μL of microdialysate was added to 20 μL of acetonitrile, well mixed (vortexing, 30 sec) and centrifuged at 3,000 rpm for 5 minutes. A supernatant was taken and injected by 5 μL for LC-MS/MS analysis.
Stability was tested under various conditions for which GABA and a glutamate test sample could be exposed.

For a further series, the system named is β-endorphin. As to the kind of experiment: Neuropeptide and cytokine concentrations in spinal cord dorsal horn microdialysate after pregabalin. Type of series: in vivo, rat. To be noted: 30 mg/kg pregabalin, neuropathic pain model and control. The source says: Spared nerve injury (SNI) models were used to assess the concentration of a pain indicator substance present in a dorsal horn in the spinal cord. To generate an efficient neuropathic pain model, the rats were anesthetized under 3% isoflurane (Hana Pharm., South Korea), after incision on the left hind of the rat leg the common peroneal and the tibial nerve of three peripheral nerve branches in the sciatic nerve were axotomized and the sural nerve was spared then the surgical site was closed (FIG. 1). After surgery, animals were placed in the home cage to recover. 2 weeks after surgery, hypersensitivity will occur in the lateral area of the rat left hind paw.
Before inserting microdialysis probe into the tissue, the probe was immersed in 70% ethanol and washed for 15 minutes at the flow rate of 3.5 ul/min. Then, the probe was immersed in distilled water and washed for 15 minutes in the same protocol. When the washing step was completed, the probe was inserted at a depth of approximately 2 mm into the dorsal horn of the L1 spinal cord (FIG. 4). […]
For analysis of the neuropeptide and cytokine of the test samples was used using “Luminex 200 multiplex system” by multiplex cytokines assay. Ten most important of pain-related neuropeptides such as IFN-gamma, IL-1 beta, IL-6, IL-10, TNF-α, MCP-1, MIP-1α, BDNF, substance P and β-endorphin and cytokines were analyzed using a total of 4 kits.

Structures are written as SMILES.

Take `NCCCC(=O)O` [GABA, γ-aminobutyric acid]: the “Remaining, freeze/thaw” value in series [1] (20 ng/mL) was determined as 103.1%; in series [1] (100 ng/mL), 106.7%; in series [1] (800 ng/mL), 101.6%. Also, the “Remaining, long term stability” value in series [1] (1 month, 20 ng/mL) turned out to be 101.8%; in series [1] (1 month, 100 ng/mL), 102.3%; in series [1] (1 month, 800 ng/mL) it was 97.7%. The “Remaining, autosampler tray” value in series [1] (6 h, 20 ng/mL) worked out at 105.4%; in series [1] (6 h, 100 ng/mL) it was 101.2%; in series [1] (6 h, 800 ng/mL), 92.1%. For the same molecule, the “Remaining, microdialysis sample at RT” value in series [1] (6 h, 20 ng/mL) came to 105.3%; in series [1] (6 h, 100 ng/mL) it was 100.6%; in series [1] (6 h, 800 ng/mL) it was 91.8%.
In the case of `CC(C)C[C@H](CN)CC(=O)O` [pregabalin], in the series on β-endorphin, the “concentrations of β-endorphin in microdialysate” value was “significantly increased and then decreased”.
Take `N[C@@H](CCC(=O)O)C(=O)O` [Glutamate, glutamate]: the “Remaining, freeze/thaw” value was 104.1% in series [1] (3 cycles, 20 ng/mL); 100.8% in series [1] (3 cycles, 100 ng/mL); 101.9% in series [1] (3 cycles, 800 ng/mL). For the same molecule, the “Remaining, autosampler tray” value in series [1] (4° C. for 6 h, 20 ng/mL) came to 106.5%; in series [1] (4° C. for 6 h, 100 ng/mL), 102.3%; in series [1] (4° C. for 6 h, 800 ng/mL), 101.1%. Also, the “Remaining, microdialysis sample at RT” value in series [1] (RT for 6 h, 20 ng/mL) amounted to 101.3%; in series [1] (RT for 6 h, 100 ng/mL), 97.3%; in series [1] (RT for 6 h, 800 ng/mL) it was 99.8%. Moreover, the “Remaining, long term stability” value in series [1] (−70° C. 1 month, 20 ng/mL) was determined as 104.2%; in series [1] (−70° C. 1 month, 100 ng/mL), 98.6%; in series [1] (−70° C. 1 month, 800 ng/mL), 96.0%.

Source of the values: patent publication US20210069351A1, “METHOD FOR SCREENING PAIN INHIBITING SUBSTANCE” (priority 2017, published 2021).
